Values of other authors, collected in patent publication US20250120985A1, “METHOD OF TREATING DIABETIC MACULAR EDEMA” (Oculis Operations Sàrl, priority 2023, published 2025).
In brackets after ≈: the same amount, converted by molar mass.

Conditions: 25° C.

| Structure (SMILES) | solubility in pure water [mg/mL] |
| --- | --- |
| OC[C@H]1O[C@@H]2O[C@H]3[C@H](O)[C@@H](O)[C@@H](O[C@H]4[C@H](O)[C@@H](O)[C@@H](O[C@H]5[C@H](O)[C@@H](O)[C@@H](O[C@H]6[C@H](O)[C@@H](O)[C@@H](O[C@H]7[C@H](O)[C@@H](O)[C@@H](O[C@H]1[C@H](O)[C@H]2O)O[C@@H]7CO)O[C@@H]6CO)O[C@@H]5CO)O[C@@H]4CO)O[C@@H]3CO [α-cyclodextrin] | 129.5 ± 0.7 (≈ 133 mM) |
| OC[C@H]1O[C@@H]2O[C@H]3[C@H](O)[C@@H](O)[C@@H](O[C@H]4[C@H](O)[C@@H](O)[C@@H](O[C@H]5[C@H](O)[C@@H](O)[C@@H](O[C@H]6[C@H](O)[C@@H](O)[C@@H](O[C@H]7[C@H](O)[C@@H](O)[C@@H](O[C@H]8[C@H](O)[C@@H](O)[C@@H](O[C@H]9[C@H](O)[C@@H](O)[C@@H](O[C@H]1[C@H](O)[C@H]2O)O[C@@H]9CO)O[C@@H]8CO)O[C@@H]7CO)O[C@@H]6CO)O[C@@H]5CO)O[C@@H]4CO)O[C@@H]3CO [γ-cyclodextrin] | 249.2 ± 0.2 (≈ 192 mM) |
